Laboratory results taken from ChEMBL document CHEMBL3396994, “Novel 4-aryl-pyrido[1,2-c]pyrimidines with dual SSRI and 5-HT1A activity. Part 4” (Eur J Med Chem, 2015).

How the values were obtained:
[1] = target: Sodium-dependent serotonin transporter (Rattus norvegicus, UniProt P31652); experiment: Displacement of [3H]citalopram from rat brain cerebral cortex SERT by liquid scintillation counting analysis; assay type: tissue-based
[2] = Half life in human liver microsomes at 10 uM by LC/MS analysis; assay type: ADME
[3] = Metabolic stability in human liver microsomes assessed as compound remaining at 10 uM after 60 mins by LC/MS analysis; assay type: ADME; conditions: read-out: Stability
[4] = target: T1, 5-hydroxytryptamine receptor 1A (Rattus norvegicus, UniProt P19327); experiment: Displacement of [3H]8-OH-DPAT from rat brain hippocampus 5-HT1A receptor by radioligand binding assay
T1 sequence (P19327 whole entry): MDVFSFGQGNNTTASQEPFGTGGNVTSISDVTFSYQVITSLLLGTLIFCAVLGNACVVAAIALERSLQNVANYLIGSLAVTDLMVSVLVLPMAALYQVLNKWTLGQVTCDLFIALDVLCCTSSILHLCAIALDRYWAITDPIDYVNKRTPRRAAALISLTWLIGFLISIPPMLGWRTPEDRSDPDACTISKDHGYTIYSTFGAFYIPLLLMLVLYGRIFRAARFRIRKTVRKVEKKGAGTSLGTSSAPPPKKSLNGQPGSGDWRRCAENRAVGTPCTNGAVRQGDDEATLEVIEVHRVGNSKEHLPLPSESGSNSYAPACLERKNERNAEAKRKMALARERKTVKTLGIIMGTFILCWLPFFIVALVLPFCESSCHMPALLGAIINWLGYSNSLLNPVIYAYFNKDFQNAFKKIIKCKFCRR

Chain of Sodium-dependent serotonin transporter (P31652 whole entry): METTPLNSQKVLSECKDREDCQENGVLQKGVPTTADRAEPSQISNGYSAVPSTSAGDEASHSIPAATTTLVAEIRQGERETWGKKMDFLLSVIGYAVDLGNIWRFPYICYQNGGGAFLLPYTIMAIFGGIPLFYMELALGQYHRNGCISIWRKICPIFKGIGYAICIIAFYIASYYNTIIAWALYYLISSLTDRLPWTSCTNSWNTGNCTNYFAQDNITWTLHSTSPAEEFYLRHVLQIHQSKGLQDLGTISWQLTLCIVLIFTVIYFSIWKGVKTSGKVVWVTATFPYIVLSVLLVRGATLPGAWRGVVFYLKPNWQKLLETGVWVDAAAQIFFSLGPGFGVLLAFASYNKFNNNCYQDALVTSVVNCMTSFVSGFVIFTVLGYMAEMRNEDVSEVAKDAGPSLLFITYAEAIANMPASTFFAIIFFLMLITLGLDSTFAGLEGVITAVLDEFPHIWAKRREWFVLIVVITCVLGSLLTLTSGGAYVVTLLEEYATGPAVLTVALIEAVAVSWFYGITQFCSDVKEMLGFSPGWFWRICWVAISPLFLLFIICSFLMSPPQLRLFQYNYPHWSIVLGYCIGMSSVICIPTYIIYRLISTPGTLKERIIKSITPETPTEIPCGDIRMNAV

Structure (SMILES)	Ki [1]	half-life at 10 µM [2]	remaining at 1 h, 10 µM [3]	Ki [4]
O=c1c(-c2ccccc2)c2ccccn2c(=O)n1CCCCN1CCC(c2c[nH]c3ccc(F)cc23)CC1	15.6 nM			12.4 nM
Cc1ccc(-c2c(=O)n(CCCCN3CCC(c4c[nH]c5ccc(F)cc45)CC3)c(=O)n3ccccc23)cc1	27.4 nM			38.5 nM
O=c1c(-c2ccc(Cl)cc2)c2ccccn2c(=O)n1CCCCN1CCC(c2c[nH]c3ccc(F)cc23)CC1	25.5 nM			84.4 nM
O=c1c(-c2ccccc2F)c2ccccn2c(=O)n1CCCCN1CCC(c2c[nH]c3ccc(F)cc23)CC1	25.7 nM			9.2 nM
O=c1c(-c2ccccc2Cl)c2ccccn2c(=O)n1CCCCN1CCC(c2c[nH]c3ccc(F)cc23)CC1	88.6 nM			15.9 nM
COc1ccccc1-c1c(=O)n(CCCCN2CCC(c3c[nH]c4ccc(F)cc34)CC2)c(=O)n2ccccc12	20.7 nM			5.6 nM
O=c1c(-c2ccc(Cl)cc2)c2ccccn2c(=O)n1CCCCN1CC=C(c2c[nH]c3ccc(F)cc23)CC1	58.2 nM	1 h	50.2%	265 nM
O=c1c(-c2ccccc2)c2ccccn2c(=O)n1CCCCN1CC=C(c2c[nH]c3ccc(Cl)cc23)CC1	322 nM			126 nM
Cc1ccc(-c2c(=O)n(CCCCN3CC=C(c4c[nH]c5ccc(Cl)cc45)CC3)c(=O)n3ccccc23)cc1	408 nM	1.41 h	64.3%	267 nM
COc1ccc(-c2c(=O)n(CCCCN3CC=C(c4c[nH]c5ccc(Cl)cc45)CC3)c(=O)n3ccccc23)cc1	312 nM			278 nM
O=c1c(-c2ccc(F)cc2)c2ccccn2c(=O)n1CCCCN1CC=C(c2c[nH]c3ccc(Cl)cc23)CC1	329 nM			106 nM
O=c1c(-c2ccccc2)c2ccccn2c(=O)n1CCCCN1CC=C(c2c[nH]c3ccc(Br)cc23)CC1	840 nM	1.37 h	63.2%	40.1 nM
Cc1ccc(-c2c(=O)n(CCCCN3CC=C(c4c[nH]c5ccc(Br)cc45)CC3)c(=O)n3ccccc23)cc1	949 nM			145 nM
COc1ccc(-c2c(=O)n(CCCCN3CC=C(c4c[nH]c5ccc(Br)cc45)CC3)c(=O)n3ccccc23)cc1	326 nM			23.1 nM
O=c1c(-c2ccc(Cl)cc2)c2ccccn2c(=O)n1CCCCN1CC=C(c2c[nH]c3ccc(Br)cc23)CC1	1000 nM			61.6 nM
O=c1c(-c2ccc(F)cc2)c2ccccn2c(=O)n1CCCCN1CC=C(c2c[nH]c3ccc(Br)cc23)CC1	404 nM	1.03 h	51.4%	79.1 nM
O=c1c(-c2ccc(F)cc2)c2ccccn2c(=O)n1CCCCN1CCC(c2c[nH]c3ccc(F)cc23)CC1	19.4 nM			12.8 nM

Next, values leading:

Ki [1]	half-life at 10 µM [2]	remaining at 1 h, 10 µM [3]	Ki [4]	Structure (SMILES)
20.8 nM	1.57 h	67.9%	251 nM	COc1ccccc1-c1c(=O)n(CCCCN2CC=C(c3c[nH]c4ccc(F)cc34)CC2)c(=O)n2ccccc12
27.1 nM	1.37 h	63.4%	118 nM	O=c1c(-c2ccccc2)c2ccccn2c(=O)n1CCCCN1CC=C(c2c[nH]c3ccc(F)cc23)CC1
30.3 nM			153 nM	Cc1ccc(-c2c(=O)n(CCCCN3CC=C(c4c[nH]c5ccc(F)cc45)CC3)c(=O)n3ccccc23)cc1
15.6 nM			81.7 nM	COc1ccc(-c2c(=O)n(CCCCN3CC=C(c4c[nH]c5ccc(F)cc45)CC3)c(=O)n3ccccc23)cc1
11.3 nM			220 nM	O=c1c(-c2ccc(F)cc2)c2ccccn2c(=O)n1CCCCN1CC=C(c2c[nH]c3ccc(F)cc23)CC1
3.9 nM			116 nM	O=c1c(-c2ccccc2F)c2ccccn2c(=O)n1CCCCN1CC=C(c2c[nH]c3ccc(F)cc23)CC1
5.2 nM			127 nM	O=c1c(-c2ccccc2Cl)c2ccccn2c(=O)n1CCCCN1CC=C(c2c[nH]c3ccc(F)cc23)CC1
58.8 nM	1.26 h	60.5%	295 nM	Cc1ccccc1-c1c(=O)n(CCCCN2CC=C(c3c[nH]c4ccc(F)cc34)CC2)c(=O)n2ccccc12
435 nM			97.1 nM	O=c1c(-c2ccccc2F)c2ccccn2c(=O)n1CCCCN1CC=C(c2c[nH]c3ccc(Cl)cc23)CC1
774 nM			74.4 nM	O=c1c(-c2ccccc2Cl)c2ccccn2c(=O)n1CCCCN1CC=C(c2c[nH]c3ccc(Cl)cc23)CC1
740 nM			212 nM	Cc1ccccc1-c1c(=O)n(CCCCN2CC=C(c3c[nH]c4ccc(Cl)cc34)CC2)c(=O)n2ccccc12
718 nM	1.13 h	55.6%	97.8 nM	COc1ccccc1-c1c(=O)n(CCCCN2CC=C(c3c[nH]c4ccc(Cl)cc34)CC2)c(=O)n2ccccc12
836 nM			32.5 nM	O=c1c(-c2ccccc2F)c2ccccn2c(=O)n1CCCCN1CC=C(c2c[nH]c3ccc(Br)cc23)CC1
879 nM			71.5 nM	Cc1ccccc1-c1c(=O)n(CCCCN2CC=C(c3c[nH]c4ccc(Br)cc34)CC2)c(=O)n2ccccc12
1200 nM			33.1 nM	COc1ccccc1-c1c(=O)n(CCCCN2CC=C(c3c[nH]c4ccc(Br)cc34)CC2)c(=O)n2ccccc12
